In ChEMBL document CHEMBL5370560, “Isolation of Anti-SARS-CoV-2 Natural Products Extracted from Mentha canadensis and the Semi-synthesis of Antiviral Derivatives” (J Nat Prod, 2023):

Biological target: Replicase polyprotein 1ab (Severe acute respiratory syndrome coronavirus 2, UniProt P0DTD1)
Assay: Inhibition of recombinant SARS-CoV-2 Delta 3CL protease using Dabcyl-KTSAVLQSGFRKME-Edans as substrate preincubated for 30 mins followed by substrate addition and measured for 1 hr by fluorescence based microplate reader analysis

SMILES	IC50 [µM]
CCc1cccc(NC(=O)[C@@H](Cc2ccc(O)c(O)c2)OC(=O)/C=C/c2ccc(O)c(O)c2)c1	45.7
CCCCCCCCCCCCNC(=O)[C@@H](Cc1ccc(O)c(O)c1)OC(=O)/C=C/c1ccc(O)c(O)c1	40.8
